Experimental data reported in patent US20080207621A1, “SOLUBLE EPOXIDE HYDROLASE INHIBITORS” (Arete Therapeutics, Inc., priority 2006, published 2008).

Tests used:
[1] = tested on: soluble epoxide hydrolase (sEH); assay: Fluorescent assay for mouse and human soluble epoxide hydrolase (CMNPC substrate); assay type: biochemical; details: substrate CMNPC 5 μM, 30° C.
Source text: Fluorescent Assay for Mouse and Human Soluble Epoxide Hydrolase Recombinant mouse sEH (MsEH) and human sEH (HsEH) were produced in a baculovirus expression system as previously reported. Grant et al., J. Biol. Chem., 268:17628-17633 (1993); Beetham et al., Arch. Biochem. Biophys., 305:197-201 (1993). The expressed proteins were purified from cell lysate by affinity chromatography. Wixtrom et al., Anal. Biochem., 169:71-80 (1988). Protein concentration was quantified using the Pierce BCA assay using bovine serum albumin as the calibrating standard. The preparations were at least 97% pure as judged by SDS-PAGE and scanning densitometry. They contained no detectable esterase or glutathione transferase activity which can interfere with the assay. The assay was also evaluated with similar results in crude cell lysates or homogenate of tissues. The IC50s for each inhibitor were determined according to the following procedure: […] Jones P. D. et. al.; Analytical Biochemistry 2005; 343: pp. 66-75) Bis/Tris HCl 25 mM pH 7.0 containing 0.1 mg/mL of BSA (buffer […] at 0.25 mM in DMSO. Mother solution of enzyme in buffer A (Mouse sEH at 6 μg/mL and Human sEH at 5 μg/mL). Inhibitor dissolved in DMSO at the appropriate concentration. In a black 96 well plate, fill all the wells with 150 μL of buffer A. Add 2 μL of DMSO in well A2 and A3, and then add 2 μL of inhibitor solution in A1 and A4 through A12. Add 150 μL of buffer A in row A, then mix several time and transfer 150 μL to row B. Repeat this operation up to row H. The 150 μL removed from row H is discarded. Add 20 μL of buffer A in column 1 and 2, then add 20 μL of enzyme solution to column 3 to 12. Incubate the plate for 5 minutes in the plate reader at 30° C. During incubation prepare the working solution of substrate by mixing 3.68 mL of buffer A (4×0.920 mL) with 266 μL (2×133 μL) of substrate solution). At t=0, add 30 μL of working substrate solution with multi-channel pipette labeled “Briggs 303” and start the reading ([S]final: 5 μM). Read with ex: 330 nm (20 nm) and em: 465 nm (20 nm) every 30 second for 10 minutes. The velocities are used to analyze and calculate the IC50s.

| SMILES | % Inhibition ([1]; Conc. 50 nM) [%] | further results |
| --- | --- | --- |
| CC(C)N1CCN(S(=O)(=O)c2ccc(NC(=O)Nc3ccc(C(F)(F)F)cc3)cc2)CC1 [Compound 15, 1-[4-(4-Isopropyl-piperazine-1-sulfonyl)-phenyl]-3-(4-trifluoromethyl-phenyl)-urea] | 90 |  |
| O=C(Nc1ccc(C(F)(F)F)cc1)Nc1cccc(S(=O)(=O)Nc2ccc(Cl)cc2)c1 [Compound 26, N-(4-Chloro-phenyl)-3-[3-(4-trifluoromethyl-phenyl)-ureido]-benzenesulfonamide] | 99 | melting point: 196 to 198 °C |
| O=C(O)CCCNS(=O)(=O)c1ccc(NC(=O)Nc2ccc(C(F)(F)F)cc2)cc1 [Compound 23, 4-{4-[3-(4-Trifluoromethyl-phenyl)-ureido]-benzenesulfonylamino}-butyric acid] | 80 | melting point: 172 to 175 °C |
| NS(=O)(=O)c1cccc(NC(=O)Nc2ccc(C(F)(F)F)cc2)c1 [Compound 4, 3-[3-(4-Trifluoromethyl-phenyl)-ureido]-benzenesulfonamide] | 75 |  |
| O=C(Nc1ccc(C(F)(F)F)cc1)Nc1ccc(S(=O)(=O)Nc2ccc(Cl)cc2)cc1 [Compound 25, N-(4-Chloro-phenyl)-4-[3-(4-trifluoromethyl-phenyl)-ureido]-benzenesulfonamide] | 99 |  |
| O=C(Nc1ccc(C(F)(F)F)cc1)Nc1ccc(S(=O)(=O)NCCN2CCOCC2)cc1 [Compound 7, N-(2-Morpholin-4-yl-ethyl)-4-[3-(4-trifluoromethyl-phenyl)-ureido]-benzenesulfonamide] | 91 |  |
| CC(=O)NS(=O)(=O)c1cccc(NC(=O)Nc2ccc(C(F)(F)F)cc2)c1 [Compound 20, N-(3-(3-(4-(trifluoromethyl)phenyl)ureido)phenylsulfonyl)aceta-mide] |  | melting point: 115 to 121 °C; % Inhibition ([1]; Conc. 5000 nM): 85% |
| CNS(=O)(=O)c1cccc(NC(=O)Nc2ccc(C(F)(F)F)cc2)c1 [Compound 12, N-methyl-3-[3-(4-trifluoromethylphenyl)ureido]benzenesulfonamide] | 85 | melting point: 238 to 240 °C |
| O=C(Nc1ccc(C(F)(F)F)cc1)Nc1ccc(S(=O)(=O)N2CCOCC2)cc1 [Compound 27, 1-[4-(Morpholine-4-sulfonyl)-phenyl]-3-(4-trifluoromethyl-phenyl)-urea] | 95 |  |
| CC(C)N1CCN(S(=O)(=O)c2cccc(NC(=O)Nc3ccc(C(F)(F)F)cc3)c2)CC1 [Compound 16, 1-[3-(4-Isopropyl-piperazine-1-sulfonyl)-phenyl]-3-(4-trifluoromethyl-phenyl)-urea] | 92 |  |
| O=C(Nc1ccc(C(F)(F)F)cc1)Nc1cccc(S(=O)(=O)N2CCOCC2)c1 [Compound 28, 1-[3-(Morpholine-4-sulfonyl)-phenyl]-3-(4-trifluoromethyl-phenyl)-urea] | 93 |  |
| NS(=O)(=O)c1ccc(NC(=O)NC23CC4CC(CC(C4)C2)C3)cc1 [Compound 1, 4-(3-Adamantan-1-yl-ureido)-benzenesulfonamide] |  | % Inhibition ([1]; Conc. 500 nM): 92% |
| NS(=O)(=O)c1cccc(NC(=O)NC23CC4CC(CC(C4)C2)C3)c1 [Compound 2, 3-(3-Adamantan-1-yl-ureido)-benzenesulfonamide] |  | % Inhibition ([1]; Conc. 500 nM): 94% |
| O=C(Nc1ccc(C(F)(F)F)cc1)Nc1cccc(S(=O)(=O)NCCN2CCOCC2)c1 [Compound 8, N-(2-Morpholin-4-yl-ethyl)-3-[3-(4-trifluoromethyl-phenyl)-ureido]-benzenesulfonamide] | 94 |  |
